experiment: in vitro; details: human, hela cells, % viability

Structure (SMILES)	viability at 28.5 h, 10 µM [%]
Cc1cc(NC(=O)c2cccc(Br)c2)nc2c1c(=O)oc1ccccc12 [CBK291238]	94.3
CCOc1ccccc1C(=O)Nc1cc(C)c2c(=O)oc3ccccc3c2n1 [CBK291240]	87.4
CCc1c(C(=O)NC(C)c2cccc(Cl)c2)cnc2cc(O)nn12 (centres unmarked) [CBK291243]	95
CCc1c(C(=O)Nc2ccc(C(F)(F)F)cc2)cnc2ncnn12 [CBK291244]	90.4
O=C(O)c1cccc2c1C(=O)N(Cc1cccs1)C2 [CBK291246]	95.3
Cc1cc(NC(=O)C2CCCCC2)nc2c1c(=O)oc1ccccc12 [CBK291247]	83.1
Cc1ccc(Nc2ncc(C(=O)NCCCN3CCN(c4cccc(Cl)c4)CC3)c3ccccc23)cc1Cl [CBK291251]	90.1
CC(c1ccccc1)N1Cc2cccc(C(=O)O)c2C1=O (centres unmarked) [CBK291252]	97.6
CC1(c2cc(F)ccc2F)NC(=O)N(c2ccncc2)C1=O (centres unmarked) [CBK291253]	92.9
COc1ccc(Oc2ncnc3c2[nH]c2ccccc23)cc1 [CBK291254]	88.9
O=c1cc(O)c2ccccc2n1Cc1ccccc1Cl [CBK291255]	93.4
Cc1cc(NC(=O)c2cc3ccccc3o2)nc2c1c(=O)oc1ccccc12 [CBK291256]	90.2
Cc1cc(NC(=O)CN2CCC(Cc3ccccc3)CC2)nc2c1c(=O)oc1ccccc12 [CBK291261]	87.2
Cc1cc(NC(=O)c2ccc(Cl)c([N+](=O)[O-])c2)nc2c1c(=O)oc1ccccc12 [CBK291263]	96.7
O=C1COc2ccccc2C/C=C/CC2(CCN(C(=O)c3c[nH]cn3)CC2)C(=O)NCCN1 [CBK291990]	98.3
O=C1NCCNC(=O)C2(C/C=C/COc3ccccc31)CCCN(C(=O)c1cnco1)C2 (centres unmarked) [CBK291993]	106
Cc1noc(C)c1C(=O)N1CC[C@H]2NC(=O)c3ccccc3OCC/C=C/C[C@H]2C1 [CBK291994]	100
O=C1NCCNC(=O)C2(C/C=C/COc3ccccc31)CCN(C(=O)CCC1CCCC1)CC2 [CBK291995]	118
O=C1COc2ccccc2C/C=C/CC2(CCNCC2)C(=O)NCCN1 [CBK291996]	105
O=C1COc2ccccc2C/C=C/CC2(CCN(C(=O)c3cnccn3)CC2)C(=O)NCCN1 [CBK291997]	106
O=C1NCCNC(=O)C2(C/C=C/COc3ccccc31)CCN(C(=O)c1ccc3[nH]nnc3c1)CC2 [CBK292000]	106
O=C(O)c1ccc(CN2CCC3(C/C=C/CNC(=O)c4ccccc4OCCNC3=O)CC2)cc1 [CBK292002]	109
CCC(=O)N1CCC2(C/C=C/CC(=O)Nc3cccc(n3)C3CN(CCO3)C(=O)CN(C)C2=O)CC1 (centres unmarked) [CBK292004]	105
Cc1cc(C(=O)N2CC[C@H]3NC(=O)c4ccccc4OCCCCC[C@H]3C2)no1 [CBK292005]	91.8
O=C1NC/C=C/CC2(CCN(C(=O)CCc3cccnc3)CC2)C(=O)NCCOc2ccccc21 [CBK292007]	88.3
O=C1COc2ccccc2CCCCC2(CCCN(CC(=O)N3CCCC3)C2)CN1 (centres unmarked) [CBK292009]	105

Structure (SMILES)	viability at 28.5 h, 10 µM [%]
Cc1cnn(CC(=O)N2CC[C@H]3NC(=O)c4ccccc4OCCCCC[C@H]3C2)c1 [CBK292010]	107
CC(=O)NCC(=O)N1CCC[C@@H]2[C@H]1CCCCc1ccccc1OCC(=O)N2C [CBK292011]	117
COc1ccc(CN2CC[C@H]3NC(=O)CNC(=O)C4(C/C=C/C[C@H]3C2)CCN(C(C)=O)CC4)cc1 [CBK292013]	90.4
O=C1NCC2(C/C=C/CCOc3ccccc31)CCN(C(=O)CCN1CCCC1=O)CC2 [CBK292016]	99.3
O=C1NCC2(C/C=C/CCOc3ccccc31)CCN(C(=O)CCN1CCCC1)CC2 [CBK292020]	87.5
Cc1ccc(CN2CCCC3(C/C=C/COc4ccccc4C(=O)NCCNC3=O)C2)cn1 (centres unmarked) [CBK292022]	94
O=C1NCCNC(=O)C2(C/C=C/COc3ccccc31)CCN(Cc1ccccc1F)CC2 [CBK292024]	101
COc1cccc(CN2CCC3(C/C=C/COc4ccccc4C(=O)NCCNC3=O)CC2)c1F [CBK292025]	108
CN1CCOc2ccccc2C(=O)NC/C=C/CC2(CCCNC2)C1=O (centres unmarked) [CBK292027]	107
Cn1nccc1CCC(=O)N1CC[C@H]2NC(=O)c3ccccc3OCCCCC[C@H]2C1 [CBK292028]	97.4
Cn1cnc(C(=O)N2CC[C@H]3NC(=O)c4ccccc4OCCCCC[C@H]3C2)c1 [CBK292031]	88.9
O=C1COc2ccccc2C/C=C/CC2(CCCN(C(=O)CN3CCCC3=O)C2)CN1 (centres unmarked) [CBK292032]	98.1
O=C1COc2ccccc2CCCC[C@@H]2CNCC[C@H]2N1 [CBK292038]	105
CNC(=O)CN1CCC[C@@H]2NC(=O)COc3ccccc3C(=O)N[C@@H]3CCOC[C@@H]3C/C=C/C[C@@H]21 [CBK292040]	100
O=C1N[C@@H]2CCN(C(=O)Cc3ccc(O)cc3)C[C@@H]2C/C=C/CCOc2ccccc21 [CBK292043]	103
O=C1COc2ccccc2CCCC[C@@H]2CN(C(=O)CCN3CCCC3=O)CC[C@H]2N1 [CBK292044]	91.8
CNC(=O)CN1CC[C@H]2NC(=O)c3ccccc3OCC/C=C/C[C@H]2C1 [CBK292049]	110
O=C1CNC(=O)C2(C/C=C/C[C@H]3COCC[C@@H]3N1)CCN(C(=O)CCc1cccnc1)CC2 [CBK292051]	107
CN1CC(=O)N2CCOC(C2)c2cccc(n2)NC(=O)C/C=C/CC2(CCNCC2)C1=O (centres unmarked) [CBK292053]	102
CC(=O)N1CCC[C@H]2NC(=O)CNC(=O)C3(C/C=C/C[C@H]21)CCN(Cc1ccccc1O)CC3 [CBK292054]	99.3
NC(=O)CN1CCCC2(CCCCc3ccccc3OCC(=O)NC2)C1 (centres unmarked) [CBK292058]	106
NC(=O)CCC(=O)N1CCC2(C/C=C/CCOc3ccccc3C(=O)NCCCNC2=O)CC1 [CBK292059]	91.7
CCN1CCC2(C/C=C/CCOc3ccccc3C(=O)NCCCNC2=O)CC1 [CBK292060]	83.3
CCN1CCC2(C/C=C/CNC(=O)c3ccccc3OCCN(C)C2=O)CC1 [CBK292061]	102
O=C1N[C@H]2CCCN(C(=O)c3cc(=O)[nH]c(=O)[nH]3)[C@H]2C/C=C/CCOc2ccccc21 [CBK292065]	107
O=C1CNC(=O)C2(C/C=C/C[C@H]3COCC[C@H]3N1)CCN(C(=O)Cc1cccnc1)CC2 [CBK292068]	103

Structure (SMILES)	viability at 28.5 h, 10 µM [%]
Cn1cc(C(=O)N2CCC3(C/C=C/C[C@H]4COCC[C@H]4NC(=O)CNC3=O)CC2)cn1 [CBK292069]	103
Cc1ccn(CCC(=O)N2CCC3(C/C=C/C[C@H]4COCC[C@@H]4NC(=O)CNC3=O)CC2)n1 [CBK292070]	86
Cc1noc(C)c1CC(=O)N1CCC2(C/C=C/C[C@H]3COCC[C@@H]3NC(=O)CNC2=O)CC1 [CBK292071]	92.3
O=C1CNC(=O)C2(C/C=C/C[C@H]3COCC[C@H]3N1)CCN(CCOc1ccccc1)CC2 [CBK292077]	107
CN(CC(=O)N1CCC[C@@H]2[C@H]1C/C=C/Cc1ccccc1OCC(=O)N2C)Cc1ccccn1 [CBK292078]	91.5
CN1C(=O)COc2ccccc2C/C=C/C[C@@H]2[C@H]1CCCN2C(=O)CNS(C)(=O)=O [CBK292079]	87.7
O=C1NC/C=C/CC2(CCN(c3ncccn3)CC2)C(=O)NCCOc2ccccc21 [CBK292081]	90.3
O=C1COc2ccccc2C/C=C/C[C@H]2CN(C(=O)Cn3ncc4ccccc4c3=O)CC[C@H]2N1 [CBK292084]	85.6
Cc1ncoc1C(=O)N1CCC2(C/C=C/C[C@H]3COCC[C@H]3NC(=O)CNC2=O)CC1 [CBK292086]	89.3
Cc1nc(C(=O)N2CCC3(CCCCOc4ccccc4C(=O)NCCNC3=O)CC2)co1 [CBK292089]	103
CC(=O)N1CC[C@H]2NC(=O)CNC(=O)C3(CCCC[C@H]2C1)CCN(C(=O)/C=C/c1ccccc1)CC3 [CBK292092]	105
CN1C(=O)COc2ccccc2C/C=C/C[C@@H]2[C@H]1CCCN2C(=O)Cn1ccc(=O)[nH]c1=O [CBK292093]	102
O=C1NC/C=C/CC2(CCN(Cc3ccccc3)CC2)C(=O)NCCOc2ccccc21 [CBK292097]	103
CN1C(=O)COc2ccccc2CCCC[C@@H]2[C@H]1CCCN2CC(N)=O [CBK292098]	105
Cc1ccc(=O)n(CC(=O)N2CCC[C@@H]3NC(=O)c4ccccc4OCCCCC[C@@H]32)n1 [CBK292100]	94
CC(=O)N1CC[C@H]2NC(=O)CNC(=O)C3(CCCC[C@H]2C1)CCN(C(=O)COc1ccccc1)CC3 [CBK292101]	100
CNC(=O)CN1CCC[C@@H]2NC(=O)c3ccccc3OCCCCC[C@@H]21 [CBK292104]	104
O=C1NCCNC(=O)C2(CCCCOc3ccccc31)CCN(C(=O)c1ccnnc1)CC2 [CBK292105]	107
CC(=O)N1CCC2(C/C=C/C[C@H]3CN(C(=O)C4CCC4)CC[C@H]3NC(=O)CNC2=O)CC1 [CBK292108]	105
CN1C(=O)COc2ccccc2CCCC[C@@H]2[C@H]1CCCN2C(=O)c1cc(=O)[nH]c(=O)[nH]1 [CBK292110]	83.3
CN1C(=O)COc2ccccc2CCCC[C@@H]2[C@H]1CCCN2CCO [CBK292112]	103
Cc1nc(CC(=O)N2CCC[C@@H]3NC(=O)c4ccccc4OCCCCC[C@@H]32)cs1 [CBK292113]	102
CC(=O)N1CCC2(CCCC[C@H]3CN(C(=O)CCC(C)C)CC[C@@H]3NC(=O)CNC2=O)CC1 [CBK292124]	103
O=C1NCCNC(=O)C2(C/C=C/COc3ccccc31)CCCN(Cc1cscn1)C2 (centres unmarked) [CBK292125]	92.2
O=C1COc2ccccc2C/C=C/CC2(CCN(Cc3cncnc3)CC2)CN1 [CBK292130]	112
